PMC12155096 (International Journal of Molecular Sciences, 2025)

Key:
human CYP2C9 = human CYP2C9 (Homo sapiens, UniProt P11712)
human CYP2C19 = human CYP2C19 (Homo sapiens, UniProt P33261)
CYP3A4 = CYP3A4 (Homo sapiens, UniProt P08684)
human CYP1A2 = target: T1, human CYP1A2 (Homo sapiens, UniProt P05177)
T1 sequence (P05177 1-516): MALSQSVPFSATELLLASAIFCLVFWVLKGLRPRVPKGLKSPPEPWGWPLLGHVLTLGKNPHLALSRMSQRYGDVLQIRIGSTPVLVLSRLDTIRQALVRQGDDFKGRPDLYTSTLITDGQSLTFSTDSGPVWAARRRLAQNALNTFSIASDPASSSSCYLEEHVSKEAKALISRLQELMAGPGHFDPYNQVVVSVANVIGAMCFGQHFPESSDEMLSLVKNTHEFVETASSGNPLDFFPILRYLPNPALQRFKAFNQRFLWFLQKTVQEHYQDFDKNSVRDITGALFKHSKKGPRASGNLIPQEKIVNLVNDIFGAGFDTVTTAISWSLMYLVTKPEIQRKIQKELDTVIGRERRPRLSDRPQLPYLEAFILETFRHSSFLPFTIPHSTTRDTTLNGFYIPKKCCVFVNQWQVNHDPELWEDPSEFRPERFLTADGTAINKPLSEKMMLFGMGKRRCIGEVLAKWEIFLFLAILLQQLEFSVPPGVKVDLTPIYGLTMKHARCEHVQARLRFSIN

human CYP2D6 = human CYP2D6 (Homo sapiens, UniProt P10635)
human CYP2D6, sequence (P10635 whole entry): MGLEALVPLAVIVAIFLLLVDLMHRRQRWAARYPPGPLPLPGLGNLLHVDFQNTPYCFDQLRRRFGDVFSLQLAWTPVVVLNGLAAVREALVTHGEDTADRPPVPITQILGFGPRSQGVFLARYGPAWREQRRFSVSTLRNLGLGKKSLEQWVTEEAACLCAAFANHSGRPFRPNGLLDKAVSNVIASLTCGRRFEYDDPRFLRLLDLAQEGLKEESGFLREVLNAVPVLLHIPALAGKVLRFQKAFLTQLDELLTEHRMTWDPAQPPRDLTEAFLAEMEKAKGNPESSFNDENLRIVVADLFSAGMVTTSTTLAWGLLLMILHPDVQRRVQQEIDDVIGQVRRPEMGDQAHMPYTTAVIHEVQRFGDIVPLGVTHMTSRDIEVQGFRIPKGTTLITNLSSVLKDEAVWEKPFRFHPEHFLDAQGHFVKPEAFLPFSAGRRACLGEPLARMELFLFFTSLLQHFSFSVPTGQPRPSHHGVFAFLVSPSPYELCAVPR

human CYP2C9, sequence (P11712 whole entry): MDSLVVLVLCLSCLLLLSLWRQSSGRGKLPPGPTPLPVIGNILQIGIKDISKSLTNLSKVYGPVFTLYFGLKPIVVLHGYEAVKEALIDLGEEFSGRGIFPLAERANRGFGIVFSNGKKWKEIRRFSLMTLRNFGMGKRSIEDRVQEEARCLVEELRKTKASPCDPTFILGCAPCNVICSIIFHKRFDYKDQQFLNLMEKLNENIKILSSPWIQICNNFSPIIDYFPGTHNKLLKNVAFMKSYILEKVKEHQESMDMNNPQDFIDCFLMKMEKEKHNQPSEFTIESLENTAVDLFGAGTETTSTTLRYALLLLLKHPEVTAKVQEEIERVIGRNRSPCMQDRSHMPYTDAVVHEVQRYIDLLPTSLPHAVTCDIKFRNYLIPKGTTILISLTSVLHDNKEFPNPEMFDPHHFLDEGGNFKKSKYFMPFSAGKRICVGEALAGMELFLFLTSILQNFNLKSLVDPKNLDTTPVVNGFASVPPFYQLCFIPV
human CYP2C19, sequence (P33261 whole entry): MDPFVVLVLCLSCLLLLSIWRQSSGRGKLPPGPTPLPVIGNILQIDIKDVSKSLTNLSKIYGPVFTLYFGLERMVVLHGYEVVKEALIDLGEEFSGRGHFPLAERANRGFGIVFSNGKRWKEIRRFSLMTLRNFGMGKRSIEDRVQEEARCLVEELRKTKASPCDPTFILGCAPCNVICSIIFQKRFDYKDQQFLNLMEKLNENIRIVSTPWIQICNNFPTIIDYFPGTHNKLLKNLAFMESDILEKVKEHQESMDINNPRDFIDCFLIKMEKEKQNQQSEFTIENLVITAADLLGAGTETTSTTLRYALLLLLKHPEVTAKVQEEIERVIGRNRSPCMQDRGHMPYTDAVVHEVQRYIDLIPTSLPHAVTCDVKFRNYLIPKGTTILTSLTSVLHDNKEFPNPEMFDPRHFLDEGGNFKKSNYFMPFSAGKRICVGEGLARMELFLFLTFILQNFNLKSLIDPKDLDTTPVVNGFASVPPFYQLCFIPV
CYP3A4, sequence (P08684 whole entry): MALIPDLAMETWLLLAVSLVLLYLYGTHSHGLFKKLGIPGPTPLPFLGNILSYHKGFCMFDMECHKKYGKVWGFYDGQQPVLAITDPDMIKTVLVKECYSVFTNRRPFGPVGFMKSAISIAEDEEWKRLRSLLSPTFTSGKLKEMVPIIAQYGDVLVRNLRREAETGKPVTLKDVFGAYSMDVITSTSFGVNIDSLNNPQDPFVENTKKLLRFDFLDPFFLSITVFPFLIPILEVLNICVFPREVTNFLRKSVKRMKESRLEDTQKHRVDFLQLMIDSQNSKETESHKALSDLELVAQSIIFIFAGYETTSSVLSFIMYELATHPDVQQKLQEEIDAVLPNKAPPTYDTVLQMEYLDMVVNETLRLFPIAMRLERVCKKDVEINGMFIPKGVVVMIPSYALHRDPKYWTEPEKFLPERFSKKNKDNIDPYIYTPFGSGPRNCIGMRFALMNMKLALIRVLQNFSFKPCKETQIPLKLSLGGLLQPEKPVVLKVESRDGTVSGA

SMILES | AC50 (human CYP2C9) [µM] | CYP2C19 AC50 (half-maximal activity concentration) (human CYP2C19) | CYP3A4 AC50 (half-maximal activity concentration) (CYP3A4) | CYP1A2 AC50 (half-maximal activity concentration) (human CYP1A2) | CYP2D6 AC50 (half-maximal activity concentration) (human CYP2D6) | AC50 (CYP3A4) [µM] | AC50 (human CYP2C19) [µM] | AC50 (human CYP1A2) [µM] | AC50 (human CYP2D6) [µM] | CYP2C9 AC50 (half-maximal activity concentration) (human CYP2C9)
CCS(=O)(=O)c1ccc(OC)c(C(=O)OC)c1 [Methyl 5-(ethylsulfonyl)-o-anisate] | 24.6 | Inconclusive inhibitor | Inactive | Inactive | Inactive |  |  |  |  | 
COC(=O)c1cc(S(N)(=O)=O)ccc1OC [Methyl 5-sulfamoyl-o-anisate] | 30.9 | Inactive | Inactive | Inactive | Inactive |  |  |  |  | 
CCCCCCC(O)CCCCCCCCCCC(=O)OC (centres unmarked) [Methyl 12-hydroxyoctadecanoate] | 23.8 | Inactive |  | Inconclusive inhibitor | Inactive | 27.7 |  |  |  | 
CCCCCCCCCCCCCOP(=O)(O)O [Monotridecyl phosphate] | 56.7 |  |  |  | Inactive | 89.4 | 45.5 | 65.1 |  | 
O=C1C=CC(=O)N1c1cccc(N2C(=O)C=CC2=O)c1 [N,N'-1,3-Phenylenedimaleimide] | 5.22 |  |  |  |  | 9.83 | 7.04 | 12.7 | 36.3 | 
CN(C)CCc1c[nH]c2ccccc12.O=C(O)/C=C/C(=O)O [N,N-Dimethyltryptamine fumarate] |  | Inactive |  | Inactive |  | 89.9 |  |  | 34.6 | Inactive
CCC(CC)Nc1ccc(C)c(C)c1 [N-(1-Ethylpropyl)-3,4-xylidine] | 33.6 |  |  |  | Inconclusive inhibitor | 1.45 | 10.7 | 11.6 |  | 
CCNS(=O)(=O)c1ccc(C)cc1 [N-Ethyl-4-methylbenzenesulfonamide] | 32 |  | Inactive |  | Inconclusive inhibitor |  | 25.9 | 41.1 |  | 
CC(C)N1C(=O)c2ccccc2C1=O [N-Isopropylphthalimide] |  | Inactive |  |  | Inactive | 57.7 |  | 35.6 |  | Inconclusive inhibitor
O=C(O)C[C@H](NC(=O)OCc1ccccc1)C(=O)O [N-[(Benzyloxy)carbonyl]-L-aspartic acid] |  | Inactive |  | Inactive | Inactive | 35.5 |  |  |  | Inactive
C[C@]12CC[C@H]3[C@@H](CCC4=CC(=O)CC[C@@H]43)[C@@H]1CC[C@@H]2OC(=O)CCC1CCCCC1 [Nandrolone cyclohexylpropionate] | 17.4 | Inconclusive inhibitor |  |  | Inactive | 4.56 |  | 26.8 |  | 
CC(C)(COC(=O)c1ccccc1)COC(=O)c1ccccc1 [Neopentyl glycol dibenzoate] | 6.58 |  |  |  | Inactive | 35.7 | 20.8 | 47.7 |  | 
Cc1cc(C)nc(O)n1.O=C(Nc1ccc([N+](=O)[O-])cc1)Nc1ccc([N+](=O)[O-])cc1 [Nicarbazin] |  | Inconclusive inhibitor |  | Inactive | Inactive | 7.42 |  |  |  | Inactive
O=C(O)C(F)(F)C(F)(F)C(F)(F)C(F)(F)C(F)(F)F [PFHxA] | 17.5 | Inactive |  | Inactive | Inconclusive inhibitor | 58.1 |  |  |  | 
N.O=C(O)C(F)(F)C(F)(F)C(F)(F)C(F)(F)C(F)(F)C(F)(F)C(F)(F)F [PFOA, ammonium salt] | 1.78 |  |  | Inactive | Inactive | 76.8 | 60.8 |  |  | 
O=C(O)C(F)(F)C(F)(F)C(F)(F)C(F)(F)C(F)(F)C(F)(F)C(F)(F)F [PFOA] | 2.52 | Inactive |  | Inactive | Inactive | 70.8 |  |  |  | 
